We go through 11 compounds from patent US7122570B2, “Tetrahydrocarbazol derivatives as ligands for G-protein-coupled receptors (GPCR)” (Zentaris AG, priority 2001, dated 2006).

The target of assay [1] is T1, GnRH receptor (Homo sapiens, UniProt P30968).
T1 sequence (P30968 1-328): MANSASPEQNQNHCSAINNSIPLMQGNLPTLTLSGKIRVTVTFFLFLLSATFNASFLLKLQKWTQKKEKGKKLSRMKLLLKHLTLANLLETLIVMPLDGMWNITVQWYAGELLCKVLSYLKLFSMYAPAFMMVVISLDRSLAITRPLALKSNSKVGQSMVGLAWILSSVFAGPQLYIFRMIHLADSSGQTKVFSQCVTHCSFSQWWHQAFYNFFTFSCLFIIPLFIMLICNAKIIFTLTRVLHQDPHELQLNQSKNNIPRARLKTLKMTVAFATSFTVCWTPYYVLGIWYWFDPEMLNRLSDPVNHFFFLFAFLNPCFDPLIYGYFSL
The assay is described as follows: Receptor binding assay with 125I-triptorelin on transfected LTK cells. As to conditions: competition with 125I-triptorelin, whole LTK cells, 60 minutes at 37° C. Here is the method: ^125I-Triptorelin [^125I-(D)-Trp6-GnRH] is ordered from the Biotrend Company (Cologne, Germany). The specific activity in each case is 2.13 Ci/mmol. All other chemicals are ordered from commercial sources at the highest available purity.
Transfixed LTK′ cells (ATCC No. CCL-11.3) are cultivated in DMEM medium (Invitrogen Life Technologies, Germany) with penicillin (100 I.U./ml), streptomycin (0.1 mg/ml) and glutamine (0.01 mol/l) and 10% fetal calf serum (FCS; Invitrogen Life Technologies, Germany) on plastic tissue culture plates (Nunc, Germany, 245×245×20 nun).
80% confluent cell culture plates are washed twice with 50 ml of phosphate-buffered salt solution (PBS) and dissolved below with 0.01 M EDTA solution. The cells are pelletized by centrifuging at 200×g for 5 minutes in a laboratory centrifuge (Kendro, Germany). The cell pellet is resuspended in 3 ml of binding medium (DMEM; 10 mmol of Hepes; 0.5% BSA; 0.1% NaN3; 1 g/l of bacitracin (freshly added, stock 100×); 0.1 g/l of SBTI (freshly added, stock 1000×), and the cell count is determined by means of trypan blue staining in a Neubauer counting chamber. The cell suspension is set with binding medium to a concentration of 5×10^5 Z/0.05 ml.
Binding tests for competition curves are performed as duplicates. The test substances are used as 10 mmol DMSO solutions. They are diluted with binding medium to 4× the final concentration used. 25 μl of the substance dilution is mixed with 25 μl of tracer solution (^125I-triptorelin). The concentration of tracer is set to about 50,000 cpm (measured in Cobra II, γ-counter, PE Liefe Science, Germany) in the final reaction volume of 100 μl.
200 μl of a silicone/paraffin oil mixture (84%:16%) is introduced into 650 μl pointed-bottom tubes (Roth, Germany). 50 μl of the cell suspension is pipetted thereto and subsequently 50 μl of the test substance/tracer mixture. The tubes are sealed and incubated for 60 minutes at 37° C. in an incubator that rotates via the top. After incubation, the samples are centrifuged in a centrifuge (Kendro, Germany) at 900 rpm and subsequently flash-frozen in liquid N2. The tip with the cell pellet is cut off and inserted into the prepared counting tube (Roth, Germany). The remainder of the pointed-bottom tube with the remaining supernatant is also inserted into a counting tube. The measurement is made in a γ-counter for 1 minute/sample.
The evaluation of the samples is carried out after calculating the specific bond in comparison to untreated cells, after the unspecific bond (excess unlabeled ligand, 1 mmol) is removed by means of GraphPad Prism (GraphPad Software Inc., USA).

Assay [2] concerns the target T1, GnRH receptor. In words: Ca2+ release, human. Format: cell-based. Particulars: read-out: Ca^2+ Release Human IC50.
Assay [3] addresses T2, hGnRH-Receptor (Homo sapiens, UniProt P30968).
T2 construct: expressed in transfected cells; host or cells: CHO-3 cells (Schmid et al., J. Biol. Chem. 275 (2000), 9193-9200), membrane preparation
T2 sequence (P30968 1-328): T1 sequence (P30968 1-328)
The assay is described as follows: GnRH receptor assay: competition binding with 125I-labeled buserelin on cell membranes. As to conditions: competition with 125I-buserelin. Here is the method:
Buserelin is ordered from Welding (Frankfurt/Main, Germany). The compound is labeled with ^125I by use of the chloramine T-method and Na^125I (4000 Ci/mmol; Amersham-Buchler, Brunswick, Germany). The labeled substance is purified by reverse phase HPLC on a Spherisorb ODS II column (250×4 mm, particle size 3 μm) by elution with 50% acetonitrile/0.15% trifluoroacetic acid at a flow rate of 0.5 ml/minute. The specific activity is 2000 Ci/mmol.
Alpha T3-1 cells (Bilezikjian et al., Mol. Endocrinol 5 (1991), 347–355) are cultivated in DMEM medium (Gibco-BRL, Eggenstein-Leopoldshafen, Germany) with penicillin (100 I.U./ml), streptomycin (0.1 mg/ml) and glutamine (0.01 mol/l) and 10% fetal calf serum (FCS; PAA Laboratories, Coelbe, Germany) on plastic tissue culture plates (Nunc, 245×245×20 mm). CHO-3 cells (Schmid et al., J. Biol. Chem. 275 (2000), 9193–9200) are cultivated under identical conditions, apart from the fact that Ham's F12 medium (Gibco-BRL) is used.
Ten confluent cell culture plates are flushed twice with 50 ml of phosphate-buffered salt solution (PBS). The cells are harvested by scraping them off with a rubber scraper in 5 ml of PBS and sedimented by centrifuging in a laboratory centrifuge (Heraeus) at 800 rpm for 10 minutes. The cell pellet is resuspended in 5 ml of 0.25 mol/l of saccharose/0.01 mol/l of triethanolamine, pH 7.4. The cells are lysed by three cycles of freezing in dry ice/ethanol bath and thawing at room temperature. The lysate is centrifuged at 900 rpm for 10 minutes, and the sediment is discarded. The supernatant is centrifuged at 18,000 rpm in a Sorvall SS34 rotor for 30 minutes. The pellet (cell membranes) is suspended by Potters in 5 ml of assay buffer (0.25 mol/l of saccharose, 0.01 mol/l of triethanolamine, pH 7.5, 1 mg/ml of ovalbumin) and stored in 200 μl of aliquots at −20° C. The determination of protein is carried out according to the Bradford method (Anal. Biochem. 72 (1976), 248–254).
Binding studies for competition curves are performed as triplicates. A test sample contains 60 μl of cell membrane suspension (10 μg of protein for αT3-1 cells or 40 μg of protein for CHO3 cells), 20 μl of ^125I-labeled buserelin (100,000 Ipm per sample for competition curves and between 1,500 and 200,000 Ipm for saturation experiments) and 20 μl of test buffer or test compound solution. The test compounds are dissolved in distilled water or 50% ethanol. Serial dilutions (5×10^−6 mol/l to […]) are produced in test buffer. The unspecific binding is determined in the presence of excess unlabeled buserelin (10^−6 mol/1). The test samples are incubated for 30 minutes at room temperature. Bonded and free ligands are separated by filtration (Whatman GF/C-filter, 2.5 cm diameter) with use of an Amicon 10x collecting device and washed twice with 5 ml of 0.02 mol/l of Tris/HCl, pH 7.4. The filters are moistened with 0.3% polyethylenimine (Serva; Heidelberg, Germany) for 30 minutes to reduce the unspecific binding. The radioactivity that was held up by the filter is determined in a 5-channel gamma-counter (Wallac-LKB 1470 Wizard).
In the table below, the IC50 values that are obtained for the preferred compounds, as defined above, are indicated.

The EC50 is the concentration giving half of the maximal effect. A lower EC50 goes with a more potent agent. On to `CC[C@H](C)[C@H](NC(=O)[C@@]1(NC(=O)[C@H](CC(C)C)NC(=O)OCc2ccccc2)CCc2[nH]c3c(Cl)cc(Cl)cc3c2C1)C(N)=O` [Compound 305, Phenylmethyl [(1S)-1-[[[(3R)-3-[[[(1S,2S)-1-(aminocarbonyl)-2-methylbutyl]amino]carbonyl]-6,8-dichloro-2-3,4,9-tetrahydro-1H-carbazol-3-yl]amino]car-bonyl]-3-methylbutyl]carbamate], for which, in assay [1], the EC50 stood at 56 nM. Still for that read-out and setting: as for `CC[C@H](C)[C@H](NC(=O)[C@@]1(NC(=O)[C@H](CCc2ccc(O)cc2)NC(=O)OCc2ccccc2)CCc2[nH]c3c(Cl)cc(Cl)cc3c2C1)C(N)=O` [Compound 303, Phenylmethyl [(1S)-1-[[[(3R)-3-[[[(1S,2S)-1-(aminocarbonyl)-2-methylbutyl]amino]carbonyl]-6,8-dichloro-2,3,4,9-tetrahydro-1H-carbazol-3-yl]amino]car-bonyl]-3-(4-hydroxyphenyl)-propyl]carbamate], the figure is 21 nM. As a reminder, the IC50 is the point on the concentration scale where inhibition reaches its midpoint. With `CC(C)[C@H](NC(=O)[C@@]1(NCCCCCCc2ccccc2)CCc2[nH]c3ccccc3c2C1)C(N)=O` [Compound 234a, (3R)-N-[(1S)-1-(Aminocarbonyl)-2-methylpropyl]-2,3,4,9-tetrahydro-3-[(6-phenylhexyl)amino]-1H-carbazole-3-carboxamide], the IC50 stood at 1000 nM in assay [2] and 9000 nM in assay [3]. In the same order, the values of `Clc1cc(Cl)c2[nH]c3c(c2c1)CC(CCCc1ccccc1)(CNCc1ccccn1)CC3` (stereo not shown) [Compound 283, 6,8-dichloro-2,3,4,9-tetrahydro-3-(3-phenylpropyl)-N-(2-pyridinylmethyl)-1H-carbazole-3-methanamine] are 3000 nM and 1000 nM.

In the case of `CC[C@H](C)[C@H](NC(=O)OCc1ccccc1)C(=O)N[C@]1(C(=O)N[C@H](C(=O)Nc2ccc(C(N)=O)cc2)C(C)C)CCc2[nH]c3ccccc3c2C1` [Compound 45, Phenylmethyl [(1S,2S)-1-[[[(3R)-3-[[[(1S)-1-[[[4-(aminocarbonyl)phenyl]amino]carbonyl]-2-methylpropyl]amino]carbonyl]-2,3,4,9-tetrahydro-1H-carbazol-3-yl]amino]carbonyl]-2-methylbutyl]carbamate], the values for the IC50 in assay [2] and in assay [3] were 1000 nM and 300 nM, respectively.

Regarding `CC[C@H](C)[C@H](NC(=O)OCc1ccccc1)C(=O)N[C@]1(C(=O)N[C@H](CO)C(C)C)CCc2[nH]c3ccccc3c2C1` [Compound 267a, Phenylmethyl [(1S,2S)-1-[[[(3R)-3-[[[(1S)-1-(hydroxymethyl)-2-methylpropyl]amino]-carbonyl]-2,3,4,9-tetrahydro-1H-carbazol-3-yl]amino]carbonyl]-2-methylbutyl]carbamate], the values for the IC50 in assay [2] and in assay [3] were 500 nM and 400 nM, respectively.

Consider `CC(C)[C@H](NC(=O)[C@@]1(NC(=O)Cc2ccc(F)cc2)CCc2[nH]c3ccccc3c2C1)C(N)=O` [Compound 91, (3R)-N-[(1S)-1-(Aminocarbonyl)-2-methyl-propyl]-3-[[(4-fluorophenyl)acetyl]amino]-2,3,4,9-tetrahydro-1H-carbazole-3-carboxamide], for which the values for the IC50 in assay [2] and in assay [3] were 2000 nM and 2400 nM, respectively.

In the case of `CC(C)C[C@H](NC(=O)[C@@]1(NC(=O)[C@H](CC(C)C)NC(=O)OCc2ccccc2)CCc2[nH]c3c(Cl)cc(Cl)cc3c2C1)C(N)=O` [Compound 306, Phenylmethyl [(1S)-1-[[[(3R)-3-[[[(1S)-1-(aminocarbonyl)-3-methylbutyl]amino]carbonyl]-6,8-dichloro-2,3,4,9-tetrahydro-1H-carbazol-3-yl]amino]car-bonyl]-3-methylbutyl]carbamate], a half-maximal response in assay [1] (EC50) required 77 nM. With `CC[C@H](C)[C@H](NC(=O)OCc1ccccc1)C(=O)N[C@]1(C(=O)N[C@H](C(N)=O)C(C)C)CCc2[nH]c3c(OC)cccc3c2C1` [Compound 147a, Phenylmethyl [(1S,2S)-1-[[[(3R)-3-[[[(1S)-1-(aminocarbonyl)-2-methypropyl]amino]-carbonyl]-2,3,4,9-tetrahydro-8-methoxy-1H-carbazol-3-yl]amino]carbonyl]-2-methylbutyl]carbamate], the IC50 in assay [2] was 250 nM; in assay [3] it was 76 nM. `CC[C@H](C)[C@H](NC(=O)OCc1ccccc1)C(=O)N[C@]1(C(=O)N[C@H](C(N)=O)C(C)C)CCc2[nH]c3c(Cl)cc(Cl)cc3c2C1` [Compound 184a, Phenylmethyl [(1S,2S)-1-[[[(3R)-3-[[[(1S)-1-(aminocarbonyl)-2-methylpropyl]amino]-carbonyl]-6,8-dichloro-2,3,4,9-tetrahydro-1H-carbazol-3-yl]amino]carbonyl]-2-methylbutyl]-carbamate]: the figures for the IC50 in assay [2] and in assay [3] were 45 nM and 15 nM, respectively. For the compound `CC(C)[C@H](NC(=O)[C@@]1(NC(=O)Cc2cccc(Br)c2)CCc2[nH]c3ccccc3c2C1)C(N)=O` [Compound 96, (3R)-N-[(1S)-1-(Aminocarbonyl)-2-methyl-propyl]-3-[[(3-bromophenyl)acetyl]-amino]-2,3,4,9-tetrahydro-1H-carbazole-3-carboxamide], the IC50 in assay [2] was found to be 3000 nM; in assay [3], 4000 nM.
